# Where two headings read alike, the source gives them in different places.
# What was measured:
# [1] = Comparative surface tension of peptides in water for injection; assay type: physicochemical; conditions: 10 mg/ml in WFI; for Effect of reduced surface tension (%): baseline WFI; for Water surface tension (dyne/cm): baseline WFI 52
# [2] = Emulsification of cottonseed oil and water for injection; assay type: physicochemical; conditions: 16.6 weight % cottonseed oil, 74.2 weight % WFI, 9.2 weight % peptide, room temperature
# Experimental: Based on its amphiphilic properties, veldoreotide acetate was evaluated by means of emulsion formulation. […] Thus, veldoreotide acetate may be considered a w/o ionic surfactant or hydrotrope with a hydrophilic lipophilic balance (HLB) of 6.
# The samples were mixed using 25G syringe and vortexed at room temperature.
# Veldoreotide was formulated as a water in oil emulsion using 80% (wt %) cottonseed oil, 20% (wt %) water for injection (WFI) and 1% (wt %) veldoreotide acetate. Specifically, 10 mg of veldoreotide acetate was dissolved in 200 uL WFI in a 5 mL glass vial, 800 mg of cottonseed oil was added and the resulting mixture was stirred under magnetic stirring at room temperature for 15 minutes at 1000 rpm. The emulsion was then viewed under the light microscope and stored under refrigeration. The resulting emulsion was stable and found to be injectable via 27G needle.
# [3] = cited from earlier work
# [4] = Density, pH and surface tension of solutions (capillary method); assay type: physicochemical
# Experimental: Tween 80 was used as a control surfactant for comparison. Densities were measured on 1 mL fixed volume samples. […] The effect of veldoreotide acetate on the pH of double distilled water (DDW) was the same at all veldoreotide acetate concentrations. The pH of DDW of 5.0 was reduced to pH 4.5. The effect of veldoreotide acetate on the density of DDW (starting density of DDW was 1.003 g/ml) was concentration dependent from 1.4 mg/ml to 21.5 mg/ml with density ranging from 0.986 to 0.998 g/ml respectively. However, at veldoreotide acetate concentrations of 45 and 102 mg/ml the density was increased above the starting density of DDW. […] The effect of veldoreotide acetate on the surface tension of DDW (starting surface tension was 64.9 dyne/cm) was consistent with veldoreotide acetate behaving as a peptide amphiphile (surfactant). The surface tension of DDW was reduced by veldoreotide acetate at maximum from 64.9 to 45 dyne/cm. In order to elucidate the meaning of this effect, Tween 80 was used as a reference surfactant. Other surfactants include Polexamer 188. The reduction of surface tension induced by Tween 80 was in the range of 40% (from 64.9 dyne/cm to about 39 dyne/cm), in comparison to veldoreotide acetate of 30% (from 64.9 dyne/cm to about 45 dyne/cm). Note that, under these experimental conditions; the effect of Tween 80 indicated a concentration-effect relationship. Whereas, the effect of veldoreotide acetate on the reduction of surface tension was at the same range for all concentrations tested.
# The data of table 4 show the surface activity of highly concentrated COR005 acetate (200 mg/ml), with or without additives in WFI, which emulates the preparation conditions of the primary emulsion of the microspheres. The results of Test 1 and 2 (Table 4) show the effect of COR005 acetate on the surface tension of water. When COR005 acetate is dissolved in water the surface tension is reduced by about 36%, from 68.5 dyne/cm for the water alone to 44 dyne/cm for the solution of water with CR005 acetate at 200 mg/ml.
Structure (SMILES),Effect of reduced surface tension (%) [1],Water surface tension (dyne/cm) [1],emulsification [2],"surface area ([3]; microspheres prepared from PLGA and octreotide acetate with 0 glucose (Biomaterials, 2004, 25, 1919-1927))","surface area ([3]; microspheres prepared from PLGA and octreotide acetate with 0.2% of glucose (Biomaterials, 2004))","surface area ([3]; microspheres prepared from PLGA and octreotide acetate with 1% of glucose (Biomaterials, 2004))","% change in surface tension compared to baseline ([4]; 7 mg/ml in DDW, 25° C.)","Density (g/ml) Weighted 1 ml ([4]; 7 mg/ml in DDW, 25° C.)","Surface tension (dyne/cm) capillary method ([4]; 7 mg/ml in DDW, 25° C.)","% change in surface tension compared to baseline ([4]; 14 mg/ml in DDW, 25° C.)","Density (g/ml) Weighted 1 ml ([4]; 14 mg/ml in DDW, 25° C.)","Surface tension (dyne/cm) capillary method ([4]; 14 mg/ml in DDW, 25° C.)","% change in surface tension compared to baseline ([4]; 28 mg/ml in DDW, 25° C.)","Density (g/ml) Weighted 1 ml ([4]; 28 mg/ml in DDW, 25° C.)","Surface tension (dyne/cm) capillary method ([4]; 28 mg/ml in DDW, 25° C.)","surface tension of DDW solution ([4]; DDW pH 5.0, 25° C., baseline 64.9 dyne/cm (text summary, concentration not specified))","reduction of surface tension of water ([4]; DDW, 25° C., baseline 64.9 dyne/cm)"
C[C@@H](O)[C@@H]1NC(=O)[C@H](CCCCN)NC(=O)[C@@H](Cc2c[nH]c3ccccc23)NC(=O)[C@H](Cc2ccccc2)NC(=O)[C@@H](NC(=O)[C@H](N)Cc2ccccc2)CSSC[C@@H](C(=O)N[C@H](CO)[C@@H](C)O)NC1=O [Octreotide],−27%,38 dyne/cm,weak emulsification efficiency,4.4 m^2/g,4.7 m^2/g,4.9 m^2/g,,,,,,,,,,,
"CCCCCCCC/C=C\CCCCCCCC(=O)OCCOCC(OCCO)C1OCC(OCCO)C1OCCO (centres unmarked) [Tween 80, reference compound]",,,,,,,−39%,0.9945 g/mL,39.6 dyne/cm,−39%,0.988 g/mL,39.35 dyne/cm,−40%,0.975 g/mL,38.8 dyne/cm,about 39 dyne/cm,~40%
CC(C)C[C@H](NC(=O)[C@@H](COC(C)(C)C)NC(=O)[C@H](Cc1ccc(O)cc1)NC(=O)[C@H](CO)NC(=O)[C@H](Cc1c[nH]c2ccccc12)NC(=O)[C@H](Cc1cnc[nH]1)NC(=O)[C@@H]1CCC(=O)N1)C(=O)N[C@@H](CCCNC(=N)N)C(=O)N1CCC[C@H]1C(=O)NNC(N)=O [Goserelin],−37%,33 dyne/cm,least potential for emulsion formation,,,,,,,,,,,,,,

# From patent US10398751B2, “Pharmaceutical compositions of water soluble peptides with poor solubility in isotonic conditions and methods for their use” (STRONGBRIDGE IRELAND LIMITED, priority 2016, dated 2019)
